# Experimental data reported in patent US20110039721A1, “METHOD FOR PREDICTION ABOUT CARCINOGENICITY OF SUBSTANCE IN RODENT” (Chemicals Evaluation and Research Institute, priority 2007, published 2011).
# How the values were obtained:
# [1] = test system: liver; conditions: in vivo; cited from earlier work
# [2] = test system: rodent; conditions: in vivo; cited from earlier work
# [3] = test system: mRNA expressed from the genes (A) to (D) in rat liver; assay: Behavior of genes (mRNA expression level, oligo-DNA microarray) in rat liver after 28-day oral administration; type: in vivo
# Outline: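 Male F344 SPF rats, 5 weeks old, four per group, received carcinogens, non-carcinogens or solvent vehicle by oral gavage once daily for 28 days. Liver total RNA was then extracted. Changes of ≥1.5-fold or ≤1/1.5 versus vehicle control, in a consistent direction across carcinogens, counted as significant.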
# [4] = gene group (A), Unigene No. Rn.144554, mRNA vs vehicle control group
# [5] = gene group (A), Unigene No. Rn.167075, mRNA vs vehicle control group
# [6] = gene group (A), Unigene No. Rn.5834, mRNA vs vehicle control group
# [7] = gene group (A), Unigene No. Rn.9836, mRNA vs vehicle control group
# [8] = gene group (B), Unigene No. Rn.1430, mRNA vs vehicle control group
# [9] = gene group (B), Unigene No. Rn.19329, mRNA vs vehicle control group
# [10] = gene group (B), Unigene No. Rn.21240, mRNA vs vehicle control group
# [11] = gene group (C), Unigene No. Rn.106184, mRNA vs vehicle control group
# [12] = gene group (C), Unigene No. Rn.108075, mRNA vs vehicle control group
# [13] = gene group (C), Unigene No. Rn.11766, mRNA vs vehicle control group
# [14] = gene group (C), Unigene No. Rn.118529, mRNA vs vehicle control group
# [15] = gene group (C), Unigene No. Rn.119024, mRNA vs vehicle control group
# [16] = gene group (C), Unigene No. Rn.120914, mRNA vs vehicle control group
# [17] = gene group (C), Unigene No. Rn.123063, mRNA vs vehicle control group
# [18] = gene group (C), Unigene No. Rn.143213, mRNA vs vehicle control group
# [19] = gene group (C), Unigene No. Rn.144946, mRNA vs vehicle control group
# [20] = gene group (C), Unigene No. Rn.14744, mRNA vs vehicle control group
# [21] = gene group (C), Unigene No. Rn.1647, mRNA vs vehicle control group
# [22] = gene group (C), Unigene No. Rn.164817, mRNA vs vehicle control group
# [23] = gene group (C), Unigene No. Rn.167685, mRNA vs vehicle control group
# [24] = gene group (C), Unigene No. Rn.185941, mRNA vs vehicle control group
# [25] = gene group (C), Unigene No. Rn.18728, mRNA vs vehicle control group
# [26] = gene group (C), Unigene No. Rn.201760, mRNA vs vehicle control group
# [27] = gene group (C), Unigene No. Rn.23969, mRNA vs vehicle control group
# [28] = gene group (C), Unigene No. Rn.24561, mRNA vs vehicle control group
# [29] = gene group (C), Unigene No. Rn.43232, mRNA vs vehicle control group
# [30] = gene group (C), Unigene No. Rn.4620, mRNA vs vehicle control group
# [31] = gene group (C), Unigene No. Rn.9757, mRNA vs vehicle control group
# [32] = gene group (C), Unigene No. Rn.9779, mRNA vs vehicle control group
# [33] = gene group (C), Unigene No. Rn.9862, mRNA vs vehicle control group
# [34] = gene group (D), Unigene No. Rn.9939, mRNA vs vehicle control group
smiles,measurement,setting,value
"ClC1=C(Cl)C2(Cl)C3C4C=CC(C4)C3C1(Cl)C2(Cl)Cl (stereo not drawn) [TS015, Aldrin]",Liver carcinogenicity,[1],Cr−
same,Carcinogenicity,[2],C+
same,"Behavior of gene caused by administration of chemical substance, Gene No. 4846",[3]; [4],−
same,"Behavior of gene caused by administration of chemical substance, Gene No. 2026",[3]; [5],−
same,"Behavior of gene caused by administration of chemical substance, Gene No. 4218",[3]; [5],−
same,"Behavior of gene caused by administration of chemical substance, Gene No. 6182",[3]; [6],+
same,"Behavior of gene caused by administration of chemical substance, Gene No. 5600",[3]; [7],−
same,"Behavior of gene caused by administration of chemical substance, Gene No. 1494",[3]; [8],−
same,"Behavior of gene caused by administration of chemical substance, Gene No. 2045",[3]; [9],+
same,"Behavior of gene caused by administration of chemical substance, Gene No. 2203",[3]; [10],+
same,"Behavior of gene caused by administration of chemical substance, Gene No. 533",[3]; [11],−
same,"Behavior of gene caused by administration of chemical substance, Gene No. 725",[3]; [12],−
same,"Behavior of gene caused by administration of chemical substance, Gene No. 1163",[3]; [13],−
same,"Behavior of gene caused by administration of chemical substance, Gene No. 4973",[3]; [14],−
same,"Behavior of gene caused by administration of chemical substance, Gene No. 4095",[3]; [15],−
same,"Behavior of gene caused by administration of chemical substance, Gene No. 1334",[3]; [16],−
same,"Behavior of gene caused by administration of chemical substance, Gene No. 6620",[3]; [16],−
same,"Behavior of gene caused by administration of chemical substance, Gene No. 6303",[3]; [17],−
same,"Behavior of gene caused by administration of chemical substance, Gene No. 5878",[3]; [18],−
same,"Behavior of gene caused by administration of chemical substance, Gene No. 1131",[3]; [19],−
same,"Behavior of gene caused by administration of chemical substance, Gene No. 1562",[3]; [20],−
same,"Behavior of gene caused by administration of chemical substance, Gene No. 1741",[3]; [21],−
same,"Behavior of gene caused by administration of chemical substance, Gene No. 893",[3]; [22],−
same,"Behavior of gene caused by administration of chemical substance, Gene No. 6026",[3]; [23],−
same,"Behavior of gene caused by administration of chemical substance, Gene No. 154",[3]; [24],−
same,"Behavior of gene caused by administration of chemical substance, Gene No. 1993",[3]; [25],−
same,"Behavior of gene caused by administration of chemical substance, Gene No. 813",[3]; [26],−
same,"Behavior of gene caused by administration of chemical substance, Gene No. 2494",[3]; [27],+
same,"Behavior of gene caused by administration of chemical substance, Gene No. 2546",[3]; [28],−
same,"Behavior of gene caused by administration of chemical substance, Gene No. 3776",[3]; [29],−
same,"Behavior of gene caused by administration of chemical substance, Gene No. 3929",[3]; [30],−
same,"Behavior of gene caused by administration of chemical substance, Gene No. 1119",[3]; [31],−
same,"Behavior of gene caused by administration of chemical substance, Gene No. 6742",[3]; [32],−
same,"Behavior of gene caused by administration of chemical substance, Gene No. 5634",[3]; [33],−
same,"Behavior of gene caused by administration of chemical substance, Gene No. 5726",[3]; [34],−
"C=CCc1ccc2c(c1)OCO2 [TS025, Safrole]",Liver carcinogenicity,[1],Cr+
same,Carcinogenicity,[2],C+
same,"Behavior of gene caused by administration of chemical substance, Gene No. 4846",[3]; [4],+
same,"Behavior of gene caused by administration of chemical substance, Gene No. 2026",[3]; [5],−
same,"Behavior of gene caused by administration of chemical substance, Gene No. 4218",[3]; [5],+
same,"Behavior of gene caused by administration of chemical substance, Gene No. 6182",[3]; [6],+
same,"Behavior of gene caused by administration of chemical substance, Gene No. 5600",[3]; [7],+
same,"Behavior of gene caused by administration of chemical substance, Gene No. 1494",[3]; [8],+
same,"Behavior of gene caused by administration of chemical substance, Gene No. 2045",[3]; [9],+
same,"Behavior of gene caused by administration of chemical substance, Gene No. 2203",[3]; [10],+
same,"Behavior of gene caused by administration of chemical substance, Gene No. 533",[3]; [11],+
same,"Behavior of gene caused by administration of chemical substance, Gene No. 725",[3]; [12],+
same,"Behavior of gene caused by administration of chemical substance, Gene No. 1163",[3]; [13],−
same,"Behavior of gene caused by administration of chemical substance, Gene No. 4973",[3]; [14],+
same,"Behavior of gene caused by administration of chemical substance, Gene No. 4095",[3]; [15],+
same,"Behavior of gene caused by administration of chemical substance, Gene No. 1334",[3]; [16],−
same,"Behavior of gene caused by administration of chemical substance, Gene No. 6620",[3]; [16],−
same,"Behavior of gene caused by administration of chemical substance, Gene No. 6303",[3]; [17],+
same,"Behavior of gene caused by administration of chemical substance, Gene No. 5878",[3]; [18],−
same,"Behavior of gene caused by administration of chemical substance, Gene No. 1131",[3]; [19],−
same,"Behavior of gene caused by administration of chemical substance, Gene No. 1562",[3]; [20],−
same,"Behavior of gene caused by administration of chemical substance, Gene No. 1741",[3]; [21],+
same,"Behavior of gene caused by administration of chemical substance, Gene No. 893",[3]; [22],−
same,"Behavior of gene caused by administration of chemical substance, Gene No. 6026",[3]; [23],−
same,"Behavior of gene caused by administration of chemical substance, Gene No. 154",[3]; [24],+
same,"Behavior of gene caused by administration of chemical substance, Gene No. 1993",[3]; [25],−
same,"Behavior of gene caused by administration of chemical substance, Gene No. 813",[3]; [26],+
same,"Behavior of gene caused by administration of chemical substance, Gene No. 2494",[3]; [27],−
same,"Behavior of gene caused by administration of chemical substance, Gene No. 2546",[3]; [28],−
same,"Behavior of gene caused by administration of chemical substance, Gene No. 3776",[3]; [29],+
same,"Behavior of gene caused by administration of chemical substance, Gene No. 3929",[3]; [30],−
same,"Behavior of gene caused by administration of chemical substance, Gene No. 1119",[3]; [31],−
same,"Behavior of gene caused by administration of chemical substance, Gene No. 6742",[3]; [32],+
same,"Behavior of gene caused by administration of chemical substance, Gene No. 5634",[3]; [33],+
same,"Behavior of gene caused by administration of chemical substance, Gene No. 5726",[3]; [34],−
"CC(=O)Nc1ccc(C(=O)CCl)cc1 [TS072, 4-(Chloroacetyl)acetanilide]",Liver carcinogenicity,[1],Cr−
same,Carcinogenicity,[2],C−
same,"Behavior of gene caused by administration of chemical substance, Gene No. 154","[3]; rat, in vivo",−
same,"Behavior of gene caused by administration of chemical substance, Gene No. 533","[3]; rat, in vivo",+
same,"Behavior of gene caused by administration of chemical substance, Gene No. 725","[3]; rat, in vivo",+
same,"Behavior of gene caused by administration of chemical substance, Gene No. 813","[3]; rat, in vivo",−
same,"Behavior of gene caused by administration of chemical substance, Gene No. 893","[3]; rat, in vivo",−
same,"Behavior of gene caused by administration of chemical substance, Gene No. 1119","[3]; rat, in vivo",−
same,"Behavior of gene caused by administration of chemical substance, Gene No. 1131","[3]; rat, in vivo",−
same,"Behavior of gene caused by administration of chemical substance, Gene No. 1163","[3]; rat, in vivo",+
same,"Behavior of gene caused by administration of chemical substance, Gene No. 1334","[3]; rat, in vivo",−
same,"Behavior of gene caused by administration of chemical substance, Gene No. 1494","[3]; rat, in vivo",+
same,"Behavior of gene caused by administration of chemical substance, Gene No. 1562","[3]; rat, in vivo",−
same,"Behavior of gene caused by administration of chemical substance, Gene No. 1741","[3]; rat, in vivo",−
same,"Behavior of gene caused by administration of chemical substance, Gene No. 1993","[3]; rat, in vivo",−
same,"Behavior of gene caused by administration of chemical substance, Gene No. 2026","[3]; rat, in vivo",+
same,"Behavior of gene caused by administration of chemical substance, Gene No. 2045","[3]; rat, in vivo",+
same,"Behavior of gene caused by administration of chemical substance, Gene No. 2203","[3]; rat, in vivo",+
same,"Behavior of gene caused by administration of chemical substance, Gene No. 2494","[3]; rat, in vivo",−
same,"Behavior of gene caused by administration of chemical substance, Gene No. 2546","[3]; rat, in vivo",−
same,"Behavior of gene caused by administration of chemical substance, Gene No. 3776","[3]; rat, in vivo",+
same,"Behavior of gene caused by administration of chemical substance, Gene No. 3929","[3]; rat, in vivo",−
same,"Behavior of gene caused by administration of chemical substance, Gene No. 4095","[3]; rat, in vivo",−
same,"Behavior of gene caused by administration of chemical substance, Gene No. 4218","[3]; rat, in vivo",+
same,"Behavior of gene caused by administration of chemical substance, Gene No. 4846","[3]; rat, in vivo",+
same,"Behavior of gene caused by administration of chemical substance, Gene No. 4973","[3]; rat, in vivo",+
same,"Behavior of gene caused by administration of chemical substance, Gene No. 5600","[3]; rat, in vivo",+
same,"Behavior of gene caused by administration of chemical substance, Gene No. 5634","[3]; rat, in vivo",−
same,"Behavior of gene caused by administration of chemical substance, Gene No. 5726","[3]; rat, in vivo",−
same,"Behavior of gene caused by administration of chemical substance, Gene No. 5878","[3]; rat, in vivo",−
same,"Behavior of gene caused by administration of chemical substance, Gene No. 6026","[3]; rat, in vivo",−
same,"Behavior of gene caused by administration of chemical substance, Gene No. 6182","[3]; rat, in vivo",+
same,"Behavior of gene caused by administration of chemical substance, Gene No. 6303","[3]; rat, in vivo",−
same,"Behavior of gene caused by administration of chemical substance, Gene No. 6620","[3]; rat, in vivo",−
same,"Behavior of gene caused by administration of chemical substance, Gene No. 6742","[3]; rat, in vivo",−
